These results are taken from US9833497B2, “Human originated EGF domain proteins and use of the same” (CHENGDU SOURCEBIO LIMITED-LIABILITY COMPANY, priority 2013, dated 2017).

Type in all cases: cell-based
One experiment deals with E. coli DH5α. Nature of the experiment: Antibacterial activity: MIC and growth curve against E. coli DH5α in 96-well plate. The note with it: minimal inhibitory concentration against E. coli DH5α; 96-well plate, 5×10^5 CFU/mL, 37° C., judged after 8 h. Summed up: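 MIC taken as lowest protein level with no bacterial growth, tracked by A600 every 30 min during 37 °C, 175 rpm culture. Two-fold protein series 50-12.5 μg/mL final, triplicate wells, against 5×10^5 CFU/mL of LB-washed mid-log cells.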

A further experiment deals with E. coli BL21. Nature of the experiment: MIC against Gram-negative bacteria: E. coli BL21. Summed up:
(§1)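 MIC, the lowest recombinant protein concentration giving no bacterial growth, found by two-fold serial dilution of human EGF-domain proteins in triplicate. Inoculum 5×10^5 CFU/mL in LB from cultures at McFarland 0.5; plates incubated at 37° C, 175 rpm shaking.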

Another experiment concerns Pseudomonas aeruginosa. Nature of the experiment: MIC against Gram-negative bacteria: Pseudomonas aeruginosa. Summed up:
as §1

For another experiment, the system named is Klebsiella pneumonia. As to the kind of experiment: MIC against Gram-negative bacteria: Klebsiella pneumonia. In a few lines:
as §1

Another experiment concerns Enterobacter cloacae. Nature of the experiment: MIC against Gram-negative bacteria: Enterobacter cloacae. In a few lines: as §1
The next experiment deals with Aeromonas hydrophila. Nature of the experiment: MIC against Gram-negative bacteria: Aeromonas hydrophila. Summed up: as §1
The subject of a further experiment is Citrobacter diversus. As to the kind of experiment: MIC against Gram-negative bacteria: Citrobacter diversus. In a few lines: as §1
The next experiment relates to Moraxella catarrhalis. Nature of the experiment: MIC against Gram-negative bacteria: Moraxella catarrhalis. In a few lines:
as §1

The test system of another experiment is Proteus mirabilis. As to the kind of experiment: MIC against Gram-negative bacteria: Proteus mirabilis. In a few lines:
as §1

The test system of a further experiment is Proteus vulgaris. As to the kind of experiment: MIC against Gram-negative bacteria: Proteus vulgaris. In a few lines:
as §1

For a further experiment, the system named is Serratia marcescens. As to the kind of experiment: MIC against Gram-negative bacteria: Serratia marcescens. Summed up: as §1
[1] abbreviates: 10 h cultivation at 37° C., 5×10^5 CFU/mL, two-fold serial dilution.
Setting [2] is: 96-well plate, 5×10^5 CFU/mL, 37° C., 10 h.

On to “PRT1027 (PGNPCYDGSHMCDTTARCHPGTGVDYTCECASGYQGDGRNCV; listed as Homo sapiens)”, for which the MIC (commonly the lowest concentration found to suppress growth) with E. coli DH5α came to 12.5 µg/mL; in the experiment on E. coli BL21 (E. coli BL21, 10 h cultivation at 37° C.), 25 µg/mL; with Pseudomonas aeruginosa (P. aeruginosa, 10 h cultivation at 37° C.) it was 12.5 µg/mL; against Klebsiella pneumonia (K. pneumonia, 10 h cultivation at 37° C.), 25 µg/mL; against Enterobacter cloacae (E. cloacae, 10 h cultivation at 37° C.), 50 µg/mL; in the experiment on Aeromonas hydrophila (A. hydrophila, 10 h cultivation at 37° C.), 12.5 µg/mL. Moreover, the MIC in the experiment with Citrobacter diversus (C. diversus, 10 h cultivation at 37° C.) came to 50 µg/mL; in the experiment with Moraxella catarrhalis (M. catarrhalis, 10 h cultivation at 37° C.), 12.5 µg/mL; in the experiment with Proteus mirabilis (P. mirabilis, 10 h cultivation at 37° C.), 50 µg/mL; against Proteus vulgaris (P. vulgaris, 10 h cultivation at 37° C.), 12.5 µg/mL; in the experiment with Serratia marcescens (S. marcescens, 10 h cultivation at 37° C.) it was 50 µg/mL.
“PRT21 (NCATPCTEGCECNQGFVLSTSQCV; listed as Homo sapiens)” registered an MIC in the experiment with E. coli DH5α of 25 µg/mL. Also, the “MIC (μg/mL) E. coli BL21” value in the experiment on E. coli BL21 (E. coli BL21, 96-well plate, 5×10^5 CFU/mL, 37° C., 10 h) came to 50 µg/mL. Besides, in the experiment on Pseudomonas aeruginosa (Pseudomonas aeruginosa, 96-well plate, 5×10^5 CFU/mL, 37° C., 10 h), the “MIC (μg/mL) P. aeruginosa” value was found to be 12.5 µg/mL. Also, the “MIC (μg/mL) K. pneumonia” value in the experiment with Klebsiella pneumonia (Klebsiella pneumonia, 96-well plate, 5×10^5 CFU/mL, 37° C., 10 h) amounted to 25 µg/mL. In the experiment with Enterobacter cloacae (Enterobacter cloacae, 96-well plate, 5×10^5 CFU/mL, 37° C., 10 h), the “MIC (μg/mL) E. cloacae” value is 50 µg/mL. In addition, the “MIC (μg/mL) A. hydrophila” value against Aeromonas hydrophila (Aeromonas hydrophila, 96-well plate, 5×10^5 CFU/mL, 37° C., 10 h) worked out at 12.5 µg/mL. Besides, the “MIC (μg/mL) C. diversus” value against Citrobacter diversus (Citrobacter diversus, 96-well plate, 5×10^5 CFU/mL, 37° C., 10 h) is 25 µg/mL. The “MIC (μg/mL) M. catarrhalis” value against Moraxella catarrhalis (Moraxella catarrhalis, 96-well plate, 5×10^5 CFU/mL, 37° C., 10 h) worked out at 12.5 µg/mL. Further, the “MIC (μg/mL) P. mirabilis” value in the experiment with Proteus mirabilis (Proteus mirabilis, 96-well plate, 5×10^5 CFU/mL, 37° C., 10 h) came to 50 µg/mL. Further, the “MIC (μg/mL) P. vulgaris” value in the experiment on Proteus vulgaris (Proteus vulgaris, 96-well plate, 5×10^5 CFU/mL, 37° C., 10 h) was found to be 25 µg/mL. The “MIC (μg/mL) S. marcescens” value against Serratia marcescens (Serratia marcescens, 96-well plate, 5×10^5 CFU/mL, 37° C., 10 h) turned out to be 50 µg/mL.
For “PRT1478 (GGSPCISQPCLHNGSCQDSIWGYTCTCSPGYEGSNCE; listed as Homo sapiens)”, in the experiment on E. coli DH5α, the MIC came out at 50 µg/mL. Also, the “MIC against E. coli BL21” value against E. coli BL21 (E. coli BL21, 5×10^5 CFU/mL, 10 h cultivation at 37° C.) was found to be 12.5 µg/mL. Further, in the experiment on Pseudomonas aeruginosa (Pseudomonas aeruginosa, 5×10^5 CFU/mL, 10 h cultivation at 37° C.), the “MIC against P. aeruginosa” value was 50 µg/mL. Further, the “MIC against K. pneumonia” value with Klebsiella pneumonia (Klebsiella pneumonia, 5×10^5 CFU/mL, 10 h cultivation at 37° C.) turned out to be 25 µg/mL. For the same substance, in the experiment on Enterobacter cloacae (Enterobacter cloacae, 5×10^5 CFU/mL, 10 h cultivation at 37° C.), the “MIC against E. cloacae” value was determined as 12.5 µg/mL. Also, the “MIC against A. hydrophila” value in the experiment with Aeromonas hydrophila (Aeromonas hydrophila, 5×10^5 CFU/mL, 10 h cultivation at 37° C.) was found to be 50 µg/mL. Also, the “MIC against C. diversus” value with Citrobacter diversus (Citrobacter diversus, 5×10^5 CFU/mL, 10 h cultivation at 37° C.) came out at 12.5 µg/mL. In addition, in the experiment on Moraxella catarrhalis (Moraxella catarrhalis, 5×10^5 CFU/mL, 10 h cultivation at 37° C.), the “MIC against M. catarrhalis” value was 25 µg/mL. For the same substance, the “MIC against P. mirabilis” value with Proteus mirabilis (Proteus mirabilis, 5×10^5 CFU/mL, 10 h cultivation at 37° C.) turned out to be 50 µg/mL. In the experiment with Proteus vulgaris (Proteus vulgaris, 5×10^5 CFU/mL, 10 h cultivation at 37° C.), the “MIC against P. vulgaris” value is 25 µg/mL. Besides, the “MIC against S. marcescens” value with Serratia marcescens (Serratia marcescens, 5×10^5 CFU/mL, 10 h cultivation at 37° C.) amounted to 12.5 µg/mL.
On to “PRT1047 (SNTCTCKNGGTCLPENGNCVCAPGFRGPSCQ; listed as Homo sapiens)”, for which the MIC against E. coli DH5α is 50 µg/mL. Also, the “MIC E. coli BL21” value in the experiment on E. coli BL21 (setting [1]) was 50 µg/mL. The “MIC P. aeruginosa” value against Pseudomonas aeruginosa (setting [1]) came out at 25 µg/mL. Besides, the “MIC K. pneumonia” value with Klebsiella pneumonia (setting [1]) amounted to 50 µg/mL. Further, the “MIC E. cloacae” value with Enterobacter cloacae (setting [1]) was 25 µg/mL. In addition, in the experiment with Aeromonas hydrophila (setting [1]), the “MIC A. hydrophila” value came out at 12.5 µg/mL. For the same substance, in the experiment on Citrobacter diversus (setting [1]), the “MIC C. diversus” value stood at 50 µg/mL. In the experiment with Moraxella catarrhalis (setting [1]), the “MIC M. catarrhalis” value was 12.5 µg/mL. Further, the “MIC P. mirabilis” value with Proteus mirabilis (setting [1]) is 12.5 µg/mL. Besides, the “MIC P. vulgaris” value in the experiment with Proteus vulgaris (setting [1]) was 12.5 µg/mL. Also, the “MIC S. marcescens” value in the experiment on Serratia marcescens (setting [1]) is 12.5 µg/mL.
Consider “PRT718 (MTLCSALNCQYQCHETPYGGACFCPPGYIINHNDSRTCV; listed as Homo sapiens)”, for which the MIC in the experiment on E. coli DH5α amounted to 12.5 µg/mL. The “MIC E. coli BL21” value in the experiment with E. coli BL21 (setting [2]) came out at 25 µg/mL. In the experiment with Pseudomonas aeruginosa (setting [2]), the “MIC P. aeruginosa” value amounted to 50 µg/mL. Moreover, in the experiment on Klebsiella pneumonia (setting [2]), the “MIC K. pneumonia” value is 25 µg/mL. In addition, the “MIC E. cloacae” value in the experiment on Enterobacter cloacae (setting [2]) worked out at 25 µg/mL. For the same substance, the “MIC A. hydrophila” value in the experiment on Aeromonas hydrophila (setting [2]) was determined as 25 µg/mL. Moreover, the “MIC C. diversus” value in the experiment with Citrobacter diversus (setting [2]) came to 25 µg/mL. Also, the “MIC M. catarrhalis” value in the experiment on Moraxella catarrhalis (setting [2]) was 12.5 µg/mL. The “MIC P. mirabilis” value in the experiment on Proteus mirabilis (setting [2]) stood at 25 µg/mL. In addition, in the experiment with Proteus vulgaris (setting [2]), the “MIC P. vulgaris” value came to 50 µg/mL. In the experiment on Serratia marcescens (setting [2]), the “MIC S. marcescens” value was 12.5 µg/mL.
